Measured values: ChEMBL document CHEMBL1914418, “Biochemical and pharmacological profiling of the pro-survival protein Bcl-xL” (Bioorg Med Chem Lett, 2011)

Assays:
Bcl-2-like protein 1 [1] = molecular target: Bcl-2-like protein 1 (Homo sapiens, UniProt Q07817, Y195F); experiment: Displacement of BODIPY-Bak conjugated peptide from GST-tagged human Bcl-2-like protein 1 Y195F mutant expressed in Escherichia coli BL21 cells at 10 uM after 3 hrs by fluorescence polarization competition assay
Bcl-2-like protein 1 [2] = molecular target: Bcl-2-like protein 1 (Homo sapiens, UniProt Q07817, F97V); experiment: Displacement of BODIPY-Bak conjugated peptide from GST-tagged human Bcl-2-like protein 1 F97V mutant expressed in Escherichia coli BL21 cells at 10 uM after 3 hrs by fluorescence polarization competition assay
Bcl-2-like protein 1 [3] = molecular target: Bcl-2-like protein 1 (Homo sapiens, UniProt Q07817, A93V); experiment: Displacement of BODIPY-Bak conjugated peptide from GST-tagged human Bcl-2-like protein 1 A93V mutant expressed in Escherichia coli BL21 cells at 10 uM after 3 hrs by fluorescence polarization competition assay
Bcl-2-like protein 1 [4] = molecular target: Bcl-2-like protein 1 (Homo sapiens, UniProt Q07817, G196A); experiment: Displacement of BODIPY-Bak conjugated peptide from GST-tagged human Bcl-2-like protein 1 G196A mutant expressed in Escherichia coli BL21 cells at 10 uM after 3 hrs by fluorescence polarization competition assay
Bcl-2-like protein 1 [5] = molecular target: Bcl-2-like protein 1 (Homo sapiens, UniProt Q07817, E129H); experiment: Displacement of BODIPY-Bak conjugated peptide from GST-tagged human Bcl-2-like protein 1 E129H mutant expressed in Escherichia coli BL21 cells at 10 uM after 3 hrs by fluorescence polarization competition assay
Bcl-2-like protein 1 [6] = molecular target: Bcl-2-like protein 1 (Homo sapiens, UniProt Q07817, A142T); experiment: Displacement of BODIPY-Bak conjugated peptide from GST-tagged human Bcl-2-like protein 1 A142T mutant expressed in Escherichia coli BL21 cells at 10 uM after 3 hrs by fluorescence polarization competition assay
Bcl-2-related protein A1 = molecular target: T1, Bcl-2-related protein A1 (Homo sapiens, UniProt Q16548); experiment: Binding affinity for GST-tagged human BCL2A1 expressed in Escherichia coli BL21 cells
T1 sequence (Q16548 whole entry): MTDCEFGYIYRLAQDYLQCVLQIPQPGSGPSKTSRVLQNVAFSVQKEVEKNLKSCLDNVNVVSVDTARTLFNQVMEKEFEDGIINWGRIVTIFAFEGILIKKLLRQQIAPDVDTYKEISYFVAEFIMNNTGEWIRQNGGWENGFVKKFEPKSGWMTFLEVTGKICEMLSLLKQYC

[7] = molecular target: Induced myeloid leukemia cell differentiation protein Mcl-1 homolog (Mus musculus, UniProt P97287); experiment: Binding affinity for GST-tagged mouse MCL1 expressed in Escherichia coli BL21 cells
[8] = Displacement of BODIPY-Bak conjugated peptide from GST-tagged human Bcl-2-like protein 1 A142Gdelta136T mutant expressed in Escherichia coli BL21 cells at 10 uM after 3 hrs by fluorescence polarization competition assay
Bcl-2-like protein 1 [9] = molecular target: Bcl-2-like protein 1 (Homo sapiens, UniProt Q07817); experiment: Displacement of BODIPY-Bak conjugated peptide from GST-tagged human Wild type Bcl-2-like protein 1 expressed in Escherichia coli BL21 cells at 10 uM after 3 hrs by fluorescence polarization competition assay
Bcl-2-like protein 1 [10] = molecular target: Bcl-2-like protein 1 (Homo sapiens, UniProt Q07817, L130G); experiment: Displacement of BODIPY-Bak conjugated peptide from GST-tagged human Bcl-2-like protein 1 L130G mutant expressed in Escherichia coli BL21 cells at 10 uM after 3 hrs by fluorescence polarization competition assay
[11] = Displacement of BODIPY-Bak conjugated peptide from GST-tagged human Bcl-2-like protein 1 delta136T mutant expressed in Escherichia coli BL21 cells at 10 uM after 3 hrs by fluorescence polarization competition assay
Bcl-2-like protein 1 [12] = molecular target: Bcl-2-like protein 1 (Homo sapiens, UniProt Q07817, E96G); experiment: Displacement of BODIPY-Bak conjugated peptide from GST-tagged human Bcl-2-like protein 1 E96G mutant expressed in Escherichia coli BL21 cells at 10 uM after 3 hrs by fluorescence polarization competition assay
Bcl-2-like protein 1 [13] = molecular target: Bcl-2-like protein 1 (Homo sapiens, UniProt Q07817, A142G); experiment: Displacement of BODIPY-Bak conjugated peptide from GST-tagged human Bcl-2-like protein 1 A142G mutant expressed in Escherichia coli BL21 cells at 10 uM after 3 hrs by fluorescence polarization competition assay
Bcl-2-like protein 1 [14] = molecular target: Bcl-2-like protein 1 (Homo sapiens, UniProt Q07817, Y101H); experiment: Displacement of BODIPY-Bak conjugated peptide from GST-tagged human Bcl-2-like protein 1 Y101H mutant expressed in Escherichia coli BL21 cells at 10 uM after 3 hrs by fluorescence polarization competition assay
Bcl-2-like protein 1 [15] = molecular target: Bcl-2-like protein 1 (Homo sapiens, UniProt Q07817, L130A); experiment: Displacement of BODIPY-Bak conjugated peptide from GST-tagged human Bcl-2-like protein 1 L130A mutant expressed in Escherichia coli BL21 cells at 10 uM after 3 hrs by fluorescence polarization competition assay
Bcl-2-like protein 1 [16] = molecular target: Bcl-2-like protein 1 (Homo sapiens, UniProt Q07817, V141A); experiment: Displacement of BODIPY-Bak conjugated peptide from GST-tagged human Bcl-2-like protein 1 V141A mutant expressed in Escherichia coli BL21 cells at 10 uM after 3 hrs by fluorescence polarization competition assay
Chain of Bcl-2-like protein 1 (Homo sapiens, UniProt Q07817, V141A) (Q07817 whole entry V141A): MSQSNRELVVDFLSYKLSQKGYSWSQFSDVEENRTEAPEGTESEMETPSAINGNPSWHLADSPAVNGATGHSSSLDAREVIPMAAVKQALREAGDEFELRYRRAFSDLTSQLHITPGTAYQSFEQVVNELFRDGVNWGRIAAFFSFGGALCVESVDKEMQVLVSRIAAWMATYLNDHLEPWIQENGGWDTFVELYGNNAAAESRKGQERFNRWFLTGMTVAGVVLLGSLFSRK

Chain of Bcl-2-like protein 1 (Homo sapiens, UniProt Q07817, L130G) (Q07817 whole entry L130G): as the sequence (Q07817 whole entry V141A) above, with L130G, A141V counted along it
Chain of Bcl-2-like protein 1 (Homo sapiens, UniProt Q07817) (Q07817 whole entry): as the sequence (Q07817 whole entry V141A) above, with A141V counted along it
Chain of Bcl-2-like protein 1 (Homo sapiens, UniProt Q07817, L130A) (Q07817 whole entry L130A): as the sequence (Q07817 whole entry V141A) above, with L130A, A141V counted along it
Chain of Induced myeloid leukemia cell differentiation protein Mcl-1 homolog (P97287 whole entry): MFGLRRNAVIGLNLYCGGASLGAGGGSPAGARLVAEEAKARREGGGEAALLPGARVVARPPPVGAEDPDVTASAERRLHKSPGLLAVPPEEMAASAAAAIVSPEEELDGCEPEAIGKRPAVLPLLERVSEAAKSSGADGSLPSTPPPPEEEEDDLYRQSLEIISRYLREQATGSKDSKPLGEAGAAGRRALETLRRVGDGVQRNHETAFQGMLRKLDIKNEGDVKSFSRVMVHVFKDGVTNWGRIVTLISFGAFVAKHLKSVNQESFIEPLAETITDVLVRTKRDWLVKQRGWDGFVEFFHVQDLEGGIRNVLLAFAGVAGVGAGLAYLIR
Chain of Bcl-2-like protein 1 (Homo sapiens, UniProt Q07817, G196A) (Q07817 whole entry G196A): as the sequence (Q07817 whole entry V141A) above, with A141V, G196A counted along it
Chain of Bcl-2-like protein 1 (Homo sapiens, UniProt Q07817, F97V) (Q07817 whole entry F97V): as the sequence (Q07817 whole entry V141A) above, with F97V, A141V counted along it
Chain of Bcl-2-like protein 1 (Homo sapiens, UniProt Q07817, A142T) (Q07817 whole entry A142T): as the sequence (Q07817 whole entry V141A) above, with A141V, A142T counted along it
Chain of Bcl-2-like protein 1 (Homo sapiens, UniProt Q07817, A93V) (Q07817 whole entry A93V): as the sequence (Q07817 whole entry V141A) above, with A93V, A141V counted along it
Chain of Bcl-2-like protein 1 (Homo sapiens, UniProt Q07817, E129H) (Q07817 whole entry E129H): as the sequence (Q07817 whole entry V141A) above, with E129H, A141V counted along it
Chain of Bcl-2-like protein 1 (Homo sapiens, UniProt Q07817, Y195F) (Q07817 whole entry Y195F): as the sequence (Q07817 whole entry V141A) above, with A141V, Y195F counted along it
Chain of Bcl-2-like protein 1 (Homo sapiens, UniProt Q07817, Y101H) (Q07817 whole entry Y101H): as the sequence (Q07817 whole entry V141A) above, with Y101H, A141V counted along it
Chain of Bcl-2-like protein 1 (Homo sapiens, UniProt Q07817, A142G) (Q07817 whole entry A142G): as the sequence (Q07817 whole entry V141A) above, with A141V, A142G counted along it
Chain of Bcl-2-like protein 1 (Homo sapiens, UniProt Q07817, E96G) (Q07817 whole entry E96G): as the sequence (Q07817 whole entry V141A) above, with E96G, A141V counted along it

Compound: CN(C)CC[C@H](CSc1ccccc1)Nc1ccc(S(=O)(=O)NC(=O)c2ccc(N3CCC(C)(C)CC3)cc2)cc1[N+](=O)[O-]
- Ki (Bcl-2-like protein 1 [1]): 51 nM
- Ki (Bcl-2-like protein 1 [2]): 82 nM
- Ki (Bcl-2-like protein 1 [3]): < 1 nM
- Ki (Bcl-2-like protein 1 [4]): 41 nM
- Ki (Bcl-2-like protein 1 [5]): 34 nM
- Ki (Bcl-2-like protein 1 [6]): 720 nM
- Kd (Bcl-2-related protein A1): > 1000 nM
- Kd [7]: > 1000 nM
- Ki [8]: 45 nM
- Ki (Bcl-2-like protein 1 [9]): 6.3 nM
- Ki (Bcl-2-like protein 1 [10]): 86 nM
- Ki [11]: 34 nM
- Ki (Bcl-2-like protein 1 [12]): 24 nM
- Ki (Bcl-2-like protein 1 [13]): 290 nM
- Ki (Bcl-2-like protein 1 [14]): 450 nM
- Ki (Bcl-2-like protein 1 [15]): 47 nM
- Ki (Bcl-2-like protein 1 [16]): 390 nM
